Earlier results on 1 substance are cited in article PMC11247654 (ACS Medicinal Chemistry Letters, 2024).

For data set [1] the following is noted: neutropenic mouse thigh infection assay.

In the case of Leu10-isobactin A, the “In vivo activity (active dose)” value in data set [1] is 3 to 10 mg/kg. The “In vitro activity against MRSA” value with MRSA is 0.5 µg/mL.
